Data set [1] can be described thus: Liquid property (pH) of solution obtained in solubility evaluation. The data set is classed as physicochemical. The conditions noted are these: pH of the solution obtained in the solubility evaluation (tyrosine 0.44 g/L in distilled water). The protocol:
A pH of the solution obtained in the evaluation of solubility was evaluated. Liquid property was evaluated according to the following evaluation standard.

Data set [2] can be described thus: Overall evaluation based on solubility and liquid property. It counts as physicochemical. The note with it: combined from solubility and liquid property.

For `N[C@@H](Cc1ccc(O)cc1)C(=O)O` [Comparative Example 1, L-tyrosine], the Liquid property result in data set [1] is listed as “Neutral (pH of 6.0 to 8.5)”. For the same compound, the Overall evaluation entry in data set [2] was “E (the solution was still turbid even after 1 hour, and/or the pH was other than neutral)”.

(Values after US20240425807A1, “MANUFACTURING METHOD OF MIXED POWDER, MIXED POWDER, POWDER, AND POWDER MEDIUM” (FUJIFILM Corporation, priority 2022, published 2024).)
